Experimental data reported in ChEMBL document CHEMBL2385072, “Development of oleanane-type triterpenes as a new class of HCV entry inhibitors” (J Med Chem, 2013).

Legend:
Conditions in all cases: HEK-293T
Hepatitis C virus [1] = test: Antiviral activity against pseudo HCV infected in human 293T cells assessed as inhibition of HCV pseudo particles entry at 5 uM after 72 hrs by luciferase reporter gene assay; type: functional, Hepacivirus hominis
Hepatitis C virus [2] = test: Antiviral activity against pseudo HCV infected in human 293T cells assessed as inhibition of HCV pseudo particles entry at 1 uM after 72 hrs by luciferase reporter gene assay; type: functional, Hepacivirus hominis
[3] = system: Vesicular stomatitis virus; test: Antiviral activity against pseudo VSV infected in human 293T cells assessed as inhibition of vesicular stromatis G protein pseudo particles entry at 5 uM after 72 hrs by luciferase reporter gene assay; type: functional
[4] = system: Vesicular stomatitis virus; test: Antiviral activity against pseudo VSV infected in human 293T cells assessed as inhibition of vesicular stromatis G protein pseudo particles entry at 1 uM after 72 hrs by luciferase reporter gene assay; type: functional

Row | Compound | inhibition at 5 µM (Hepatitis C virus [1]) [%] | inhibition at 1 µM (Hepatitis C virus [2]) [%] | inhibition at 5 µM [3] [%] | inhibition at 1 µM [4] [%]
1 | CC1(C)CC[C@]2(C(=O)O[C@@H]3O[C@H](CO)[C@H](O)[C@H](O)[C@H]3O)[C@H](O)C[C@]3(C)C(=CC[C@@H]4[C@@]5(C)CC[C@H](O)C(C)(C)[C@@H]5CC[C@]43C)[C@@H]2C1 | 61.6 | 40.9 | 14.6 | 8.1
2 | COC(=O)[C@]12CCC(C)(C)C[C@H]1C1=CC[C@@H]3[C@@]4(C)CC=CC(C)(C)[C@@H]4CC[C@@]3(C)[C@]1(C)C[C@H]2O | -8.9 | -3.3 | 9.7 | 7.6
3 | COC(=O)[C@]12CCC(C)(C)C[C@H]1C1=CC[C@@H]3[C@@]4(C)CC[C@H](O[Si](C)(C)C(C)(C)C)C(C)(C)[C@@H]4CC[C@@]3(C)[C@]1(C)CC2=O | -3.8 | 11.5 | 40.2 | 45.3
4 | CC(=O)OC[C@H]1O[C@H](O[C@H]2[C@H](OC(C)=O)[C@@H](OC(C)=O)[C@H](OC(=O)[C@]34CCC(C)(C)C[C@H]3C3=CC[C@@H]5[C@@]6(C)CC[C@H](O)C(C)(C)[C@@H]6CC[C@@]5(C)[C@]3(C)C[C@H]4O)O[C@@H]2COC(C)=O)[C@H](OC(C)=O)[C@@H](OC(C)=O)[C@@H]1OC(C)=O | 50 | 36.5 | 23.4 | 20.9
5 | CC1(C)CC[C@]2(C(=O)O)[C@H](O)C[C@]3(C)C(=CC[C@@H]4[C@@]5(C)CC[C@H](OS(=O)(=O)O)C(C)(C)[C@@H]5CC[C@]43C)[C@@H]2C1 | 55.2 | 33.4 | 40.4 | 39.1
6 | COC(=O)[C@]12CCC(C)(C)C[C@H]1C1=CC[C@@H]3[C@@]4(C)CC[C@H](OCc5ccccc5)C(C)(C)[C@@H]4CC[C@@]3(C)[C@]1(C)C[C@H]2O | 5.2 | 10.5 | 25 | 12.6
7 | COC(=O)[C@]12CCC(C)(C)C[C@H]1C1=CC[C@@H]3[C@@]4(C)CC[C@H](OS(=O)(=O)c5ccc(C)cc5)C(C)(C)[C@@H]4CC[C@@]3(C)[C@]1(C)C[C@H]2O | 16.4 | 12.3 | 39.3 | 38.3
8 | COC(=O)[C@]12CCC(C)(C)C[C@H]1[C@H]1C(O)C[C@@H]3[C@@]4(C)CC[C@H](O)C(C)(C)[C@@H]4CC[C@@]3(C)[C@]1(C)C[C@H]2O (stereo partly drawn) | 51 | 22.6 | 43.5 | 35.8
9 | CC(=O)OC[C@H]1O[C@@H](OC(=O)[C@]23CCC(C)(C)C[C@H]2C2=CC[C@@H]4[C@@]5(C)CC[C@H](O)C(C)(C)[C@@H]5CC[C@@]4(C)[C@]2(C)C[C@H]3O)[C@H](OC(C)=O)[C@@H](OC(C)=O)[C@H]1OC(C)=O | 81.6 | 43.4 | 30.7 | 29.3
10 | COC(=O)[C@]12CCC(C)(C)C[C@H]1C1=CC[C@@H]3[C@@]4(C)CC[C@H](O)C(C)(C)[C@@H]4CC[C@@]3(C)[C@]1(C)C[C@H]2OCc1ccccc1 | 5.8 | 4.6 | -3.9 | 1.6
11 | CC1(C)CC[C@]2(C(=O)NCc3cn(CCNC(=O)CCCC[C@@H]4SC[C@@H]5NC(=O)N[C@@H]54)nn3)[C@H](O)C[C@]3(C)C(=CC[C@@H]4[C@@]5(C)CC[C@H](O)C(C)(C)[C@@H]5CC[C@]43C)[C@@H]2C1 | 76.7 | 34.2 | 12 | 10.3
12 | CC1(C)CC[C@]2(C(=O)O[C@@H]3O[C@H](CO)[C@@H](O[C@H]4O[C@H](CO)[C@@H](O)[C@H](O)[C@H]4O)[C@H](O)[C@H]3O)[C@H](O)C[C@]3(C)C(=CC[C@@H]4[C@@]5(C)CC[C@H](O)C(C)(C)[C@@H]5CC[C@]43C)[C@@H]2C1 | 43.7 | 36.4 | 21.9 | 21.6
13 | CC1(C)CC[C@]2(C(=O)O[C@@H]3O[C@H](CO)[C@@H](O)[C@H](O)[C@H]3O)[C@H](O)C[C@]3(C)C(=CC[C@@H]4[C@@]5(C)CC[C@H](O)C(C)(C)[C@@H]5CC[C@]43C)[C@@H]2C1 | 67.5 | 30.6 | 5.6 | 12.9
14 | COC(=O)[C@]12CCC(C)(C)C[C@H]1C1=CC[C@@H]3[C@@]4(C)CC[C@H](OC(C)=O)C(C)(C)[C@@H]4CC[C@@]3(C)[C@]1(C)C[C@H]2OC(C)=O | 20.1 | 13.5 | 24.2 | 15.8
15 | CC1(C)CC[C@]2(C(=O)O)[C@H](O)C[C@]3(C)C(=CC[C@@H]4[C@@]5(C)CCC(N)C(C)(C)[C@@H]5CC[C@]43C)[C@@H]2C1 (stereo partly drawn) | 10.5 | 12.1 | 28.4 | 23.6
16 | CC1(C)CC[C@]2(C(=O)O)[C@H](O)C[C@]3(C)C(=CC[C@@H]4[C@@]5(C)[C@H](O)C[C@H](O)C(C)(C)[C@@H]5CC[C@]43C)[C@@H]2C1 | 35.2 | 14.3 | 11.8 | 7.9
17 | CC1(C)CC[C@]2(C(=O)NCc3cn([C@@H]4O[C@H](CO)[C@@H](O)[C@H](O)[C@H]4O)nn3)[C@H](O)C[C@]3(C)C(=CC[C@@H]4[C@@]5(C)CC[C@H](O)C(C)(C)[C@@H]5CC[C@]43C)[C@@H]2C1 | 33.1 | 12.4 | 19.1 | -15.2
18 | CC1(C)CC[C@]2(C(=O)NCCCNC(=O)[C@]34CCC(C)(C)C[C@H]3C3=CC[C@@H]5[C@@]6(C)CC[C@H](O)C(C)(C)[C@@H]6CC[C@@]5(C)[C@]3(C)C[C@H]4O)[C@H](O)C[C@]3(C)C(=CC[C@@H]4[C@@]5(C)CC[C@H](O)C(C)(C)[C@@H]5CC[C@]43C)[C@@H]2C1 | 58.2 | 44.6 | 27.6 | 18.7
19 | CC(=O)OC[C@H]1O[C@@H](n2cc(CNC(=O)[C@]34CCC(C)(C)C[C@H]3C3=CC[C@@H]5[C@@]6(C)CC[C@H](O)C(C)(C)[C@@H]6CC[C@@]5(C)[C@]3(C)C[C@H]4O)nn2)[C@H](OC(C)=O)[C@@H](OC(C)=O)[C@H]1OC(C)=O | 66.5 | 20.4 | 30.6 | 24.3
20 | COC(=O)[C@@]12C=C[C@]3(C)C(=CC[C@@H]4[C@@]5(C)CC=CC(C)(C)[C@@H]5CC[C@]43C)[C@@H]1CC(C)(C)CC2 | 14 | 35.8 | 33.9 | 20.9
21 | COC(=O)[C@]12CCC(C)(C)C[C@H]1C1=CC[C@@H]3[C@@]4(C)CC[C@H](OC)C(C)(C)[C@@H]4CC[C@@]3(C)[C@]1(C)C[C@H]2O |  | -14 | 30.1 | 9.9
